Assay [1] concerns the target T1, recombinant human Wee1A kinase (Homo sapiens, UniProt P30291).
T1 construct: full length Wee1 kinase was expressed by baculovirus in insect cells; purchased Invitrogen PV3817; host or cells: insect cells (baculovirus)
In words: Wee1A kinase binding assay (LanthaScreen Eu time-resolved FRET). In short, it runs like this:
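Full-length, baculovirus-expressed GST-tagged Wee1A (5 nM) was mixed with 2 nM Eu-anti-GST antibody, 30 nM kinase tracer 178 and compound (1% DMSO). Buffer was 50 mM HEPES pH 7.5, 10 mM MgCl2, 1 mM EGTA, 0.01% Brij-35, incubated 60 min at room temperature. TR-FRET 665/615 nm emission ratios from duplicates were curve-fitted.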

Assay [2] deals with T2, Myt1 kinase (recombinant PMYT-1) (Homo sapiens, UniProt Q99640).
T2 construct: full length PMYT-1 was expressed by baculovirus in insect cells; purchased Invitrogen A30984; host or cells: insect cells (baculovirus)
T2 sequence (Q99640 1-499): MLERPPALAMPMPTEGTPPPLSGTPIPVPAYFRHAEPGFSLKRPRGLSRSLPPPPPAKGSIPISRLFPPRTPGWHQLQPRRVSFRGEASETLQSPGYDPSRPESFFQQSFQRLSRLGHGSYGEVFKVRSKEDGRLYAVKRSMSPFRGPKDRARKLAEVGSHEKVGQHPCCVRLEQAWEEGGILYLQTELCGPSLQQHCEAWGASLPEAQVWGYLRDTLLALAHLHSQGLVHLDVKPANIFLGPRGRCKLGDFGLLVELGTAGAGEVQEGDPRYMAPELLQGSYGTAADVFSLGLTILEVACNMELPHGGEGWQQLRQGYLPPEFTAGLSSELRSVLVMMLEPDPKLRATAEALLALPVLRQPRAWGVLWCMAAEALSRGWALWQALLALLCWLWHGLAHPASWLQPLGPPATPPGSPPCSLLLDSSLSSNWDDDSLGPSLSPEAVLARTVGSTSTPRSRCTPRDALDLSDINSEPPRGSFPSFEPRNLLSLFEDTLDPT
The assay can be described thus: Myt1 kinase binding assay (LanthaScreen Eu Kinase Binding Assay). Summed up: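 Compound binding to Myt1 kinase was assessed using the LanthaScreen Eu Kinase Binding Assay. This europium-based binding format was applied to quantify how strongly each compound bound to the Myt1 enzyme, and the binding affinity was reported for each compound as an IC50 value.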

For assay [3], the target named is T3, Wee1A kinase (CDK1 Tyr15 phosphorylation in ACHN renal cell carcinoma cells) (Homo sapiens, UniProt P30291).
T3 construct: pCDK1 Tyr15 immunofluorescence read-out
The assay can be described thus: High-content imaging of pCdk1 Y15, Wee1A kinase target engagement in ACHN cells. In kind it is cell-based. Summed up:
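EC50 values come from the per-well fraction of cells with nuclear pCdk1 Y15 staining, normalised to DMSO control, by automated immunofluorescence imaging. Cells were ACHN renal carcinoma, treated 4 h with compound at 7–5,000 nM or 0.3–200 nM.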

The mark [4] stands for this setting: 30 nM tracer 178, 5 nM Wee1A kinase, 2 nM Eu-labeled antibody, 60 minutes at room temperature, read-out: Wee1A kinase Binding IC50.
The mark [5] stands for this setting: 3 nM tracer 178, 2.5 nM PMYT-1, 1 nM Eu-labeled antibody, read-out: Myt1 kinase Binding IC50.
Setting [6] is: 4 h treatment, nuclear positivity for pCdk1 Y15 vs DMSO control, read-out: CDK1 Tyr15 Phosphorylation EC50.
Where [7] appears, read: Myt1 kinase Binding IC50, 3 nM tracer 178, 2.5 nM PMYT-1, 1 nM Eu-labeled antibody.
Setting [8] is: read-out: CDK1 Tyr15 Phosphorylation EC50, 4 h treatment, nuclear positivity for pCdk1 Y15 vs DMSO control.

Read-outs that look alike come from different tables or passages of the source.

T3 sequence (P30291 whole entry): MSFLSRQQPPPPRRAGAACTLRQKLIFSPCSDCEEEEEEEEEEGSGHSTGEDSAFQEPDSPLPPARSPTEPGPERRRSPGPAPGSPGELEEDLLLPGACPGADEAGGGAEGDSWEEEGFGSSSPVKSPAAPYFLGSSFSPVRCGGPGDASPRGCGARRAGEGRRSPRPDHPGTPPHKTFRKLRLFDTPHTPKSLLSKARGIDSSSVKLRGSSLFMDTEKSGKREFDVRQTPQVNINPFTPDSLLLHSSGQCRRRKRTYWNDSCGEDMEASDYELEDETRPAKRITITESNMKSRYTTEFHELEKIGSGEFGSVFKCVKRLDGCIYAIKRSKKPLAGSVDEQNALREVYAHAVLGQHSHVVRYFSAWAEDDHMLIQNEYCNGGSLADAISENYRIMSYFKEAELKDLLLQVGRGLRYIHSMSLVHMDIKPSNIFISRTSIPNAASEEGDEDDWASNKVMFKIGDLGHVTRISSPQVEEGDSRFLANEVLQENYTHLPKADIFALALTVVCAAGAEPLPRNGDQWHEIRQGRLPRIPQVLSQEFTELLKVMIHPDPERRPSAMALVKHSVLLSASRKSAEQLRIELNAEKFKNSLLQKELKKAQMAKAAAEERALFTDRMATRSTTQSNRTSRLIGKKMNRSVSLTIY
T1 sequence (P30291 whole entry): as above

As to `C=CCn1c(=O)c2cnc(Nc3ccc(C(F)(F)F)cc3)nc2n1-c1cccc(NC2CCNCC2)n1` [Compound 131, 2-allyl-1-[6-(4-piperidylamino)-2-pyridyl]-6-[p-(trifluoromethyl)phenylamino]-1,2-dihydro-3H-1,2,5,7-tetraazainden-3-one], the IC50 in assay [1] (setting [4]) was less than 10 nM; in assay [2] (setting [5]) it was 100 to 500 nM. Further, the EC50 in assay [3] (setting [6]) fell in the range of 500 to 1000 nM.

Regarding `C=CCn1c(=O)c2cnc(Nc3ccc4c(cnn4C)c3)nc2n1-c1cccc(OC2CCCNCC2)n1` (single isomer, unassigned) [Compound 357], the concentration for half-maximal inhibition (IC50) is less than 10 nM in assay [1] (setting [4]) and 20 to 100 nM in assay [2] (setting [5]). Also, the EC50 in assay [3] (setting [6]) is less than 100 nM.

Consider `C=CCn1c(=O)c2cnc(Nc3ccc(F)cc3)nc2n1-c1cccc(O[C@H]2CCCNCC2)n1` (single isomer, unassigned) [Compound 266], for which the figures for the IC50 in assay [1] (setting [4]) and in assay [2] (setting [5]) were less than 10 nM and 20 to 100 nM, respectively. For the same molecule, the EC50 in assay [3] (setting [6]) was 100 to 500 nM.

In the case of `C=CCn1c(=O)c2cnc(Nc3cc(C)cc(OC(F)(F)F)c3)nc2n1-c1cccc(NC2CCNCC2)n1` [Compound 155, 6-{[3-methyl-5-(trifluoromethoxy)phenyl]amino}-1-{6-[(piperidin-4-yl)amino]pyridin-2-yl}-2-(prop-2-en-1-yl)-1H,2H,3H-pyrazolo[3,4-d]pyrimidin-3-one], the IC50 in assay [1] (setting [4]) was less than 10 nM; in assay [2] (setting [5]), 100 to 500 nM. Also, the EC50 in assay [3] (setting [6]) lay in the range of 500 to 1000 nM.

As to `C=CCn1c(=O)c2cnc(Nc3ccccc3)nc2n1-c1cccc(NC2CCNCC2)n1` [Compound 123, 6-(phenylamino)-1-{6-[(piperidin-4-yl)amino]pyridin-2-yl}-2-(prop-2-en-1-yl)-1H,2H,3H-pyrazolo[3,4-d]pyrimidin-3-one], the results for the IC50 in assay [1] (setting [4]) and in assay [2] (setting [5]) were less than 10 nM and 100 to 500 nM, respectively. Also, the EC50 in assay [3] (setting [6]) was in the range of 500 to 1000 nM.

With `C=CCn1c(=O)c2cnc(Nc3cnn(CCC)c3)nc2n1-c1cccc(N(C)C2CCN(C)CC2)n1` [Compound 177, 1-{6-[N-methyl(1-methyl-4-piperidyl)amino]-2-pyridyl}-2-allyl-6-(1-propyl-4-pyrazolylamino)-1,2-dihydro-3H-1,2,5,7-tetraazainden-3-one], the figures for the IC50 in assay [1] and in assay [2] (setting [7]) were less than 10 nM and greater than 500 nM, respectively. Further, the EC50 in assay [3] (setting [8]) is 100 to 500 nM.

Take `C=CCn1c(=O)c2cnc(Nc3cccc(-n4cccn4)c3)nc2n1-c1cccc(OC2CCN(C)CC2)n1` [Compound 364, 2-allyl-1-[6-(1-methyl-4-piperidyloxy)-2-pyridyl]-6-[m-(1-pyrazolyl)phenylamino]-1,2-dihydro-3H-1,2,5,7-tetraazainden-3-one]: the results for the IC50 in assay [1] (setting [4]) and in assay [2] (setting [5]) were less than 10 nM and 20 to 100 nM, respectively. The EC50 in assay [3] (setting [6]) was less than 100 nM.

Consider `C=CCn1c(=O)c2cnc(Nc3cncc(Cl)c3)nc2n1-c1cccc(OC2CCN(C)CC2)n1` [Compound 323, 2-allyl-6-(5-chloro-3-pyridylamino)-1-[6-(1-methyl-4-piperidyloxy)-2-pyridyl]-1,2-dihydro-3H-1,2,5,7-tetraazainden-3-one], for which the IC50 was less than 10 nM in assay [1] (setting [4]) and 20 to 100 nM in assay [2] (setting [5]). For the same molecule, in assay [3] (setting [6]), the EC50 lay within 100 to 500 nM.

On to `C=CCn1c(=O)c2cnc(Nc3ccc(OCC(F)(F)F)cc3)nc2n1-c1ccnc(OC2CCN(C3COC3)CC2)n1` [Compound 371, 2-allyl-1-(2-((1-(oxetan-3-yl)piperidin-4-yl)oxy)pyrimidin-4-yl)-6-((4-(2,2,2-trifluoroethoxy)phenyl)amino)-1,2-dihydro-3H-pyrazolo[3,4-d]pyrimidin-3-one], for which the figures for the IC50 in assay [1] (setting [4]) and in assay [2] (setting [5]) were less than 10 nM and 100 to 500 nM, respectively. The EC50 in assay [3] (setting [6]) was less than 100 nM.

For `C=CCn1c(=O)c2cnc(Nc3ccc4[nH]nc(Cl)c4c3)nc2n1-c1cccc(OC2CCNCC2)n1` [Compound 275, 2-allyl-6-((3-chloro-1H-indazol-5-yl)amino)-1-(6-(piperidin-4-yloxy)pyridin-2-yl)-1,2-dihydro-3H-pyrazolo[3,4-d]pyrimidin-3-one], the IC50 in assay [1] (setting [4]) was less than 10 nM; in assay [2] (setting [5]), 20 to 100 nM. In assay [3] (setting [6]), the EC50 is greater than 1000 nM.

Consider `CCn1c(=O)c2cnc(Nc3cccc(-c4cccnc4)c3)nc2n1-c1cccc(OC2CCN(C)CC2)n1` [Compound 352, 2-ethyl-1-[6-(1-methyl-4-piperidyloxy)-2-pyridyl]-6-[m-(3-pyridyl)phenylamino]-1,2-dihydro-3H-1,2,5,7-tetraazainden-3-one], for which the figures for the IC50 in assay [1] (setting [4]) and in assay [2] (setting [5]) were less than 10 nM and 20 to 100 nM, respectively. Also, in assay [3] (setting [6]), the EC50 is less than 100 nM.

`C=CCn1c(=O)c2cnc(Nc3ccc(Cl)cc3)nc2n1-c1cccc(N(CCC)C2CCN(C)CC2)n1` [Compound 149, 6-[(4-chlorophenyl)amino]-1-{6-[(1-methylpiperidin-4-yl)(propyl)amino]pyridin-2-yl}-2-(prop-2-en-1-yl)-1H,2H,3H-pyrazolo[3,4-d]pyrimidin-3-one]: the IC50 was less than 10 nM in assay [1] and greater than 500 nM in assay [2] (setting [7]). The EC50 in assay [3] (setting [8]) was in the range of 500 to 1000 nM.

On to `C=CCn1c(=O)c2cnc(Nc3ccc(OC(F)(F)F)c(C)c3)nc2n1-c1cccc(NC2CCNCC2)n1` [Compound 136, 6-{[3-methyl-4-(trifluoromethoxy)phenyl]amino}-1-{6-[(piperidin-4-yl)amino]pyridin-2-yl}-2-(prop-2-en-1-yl)-1H,2H,3H-pyrazolo[3,4-d]pyrimidin-3-one], for which the IC50 in assay [1] (setting [4]) is less than 10 nM; in assay [2] (setting [5]) it was 100 to 500 nM. The EC50 in assay [3] (setting [6]) was in the range of 100 to 500 nM.

For the molecule `C=CCn1c(=O)c2cnc(Nc3cccc(-n4cccn4)c3)nc2n1-c1cccc(OC2CCNCC2)n1` [Compound 363, 2-allyl-1-[6-(4-piperidyloxy)-2-pyridyl]-6-[m-(1-pyrazolyl)phenylamino]-1,2-dihydro-3H-1,2,5,7-tetraazainden-3-one], the IC50 in assay [1] (setting [4]) is less than 10 nM; in assay [2] (setting [5]), 20 to 100 nM. Moreover, the EC50 in assay [3] (setting [6]) was in the range of 100 to 500 nM.

For `Cn1c(=O)c2cnc(Nc3ccc(Cl)cc3)nc2n1-c1cccc(OC2CCNCC2)n1` [Compound 153, 6-(p-chlorophenylamino)-2-methyl-1-[6-(4-piperidyloxy)-2-pyridyl]-1,2-dihydro-3H-1,2,5,7-tetraazainden-3-one], the values for the concentration for half-maximal inhibition (IC50) in assay [1] (setting [4]) and in assay [2] (setting [5]) were less than 10 nM and 20 to 100 nM, respectively. Further, the EC50 in assay [3] (setting [6]) was 500 to 1000 nM.

For `CCn1c(=O)c2cnc(Nc3cccc(-c4ccccc4)c3)nc2n1-c1cccc(OC2CCN(C)CC2)n1` [Compound 339, 6-(3-biphenylylamino)-2-ethyl-1-[6-(1-methyl-4-piperidyloxy)-2-pyridyl]-1,2-dihydro-3H-1,2,5,7-tetraazainden-3-one], the IC50 was less than 10 nM in assay [1] (setting [4]) and 20 to 100 nM in assay [2] (setting [5]). Moreover, the EC50 in assay [3] (setting [6]) was greater than 1000 nM.

Take `C=CCn1c(=O)c2cnc(Nc3ccc4c(cnn4C)c3)nc2n1-c1cccc(O[C@@H]2CCN[C@@H](C)C2)n1` (relative stereo) [Compound 405, rel-2-allyl-6-((1-methyl-1H-indazol-5-yl)amino)-1-(6-(((2R,4S)-2-methylpiperidin-4-yl)oxy)pyridin-2-yl)-1,2-dihydro-3H-pyrazolo[3,4-d]pyrimidin-3-one]: the concentration for half-maximal inhibition (IC50) in assay [1] (setting [4]) is less than 10 nM; in assay [2] (setting [5]), 20 to 100 nM. The EC50 in assay [3] (setting [6]) is less than 100 nM.

In the case of `C=CCn1c(=O)c2cnc(Nc3cnn(CC(C)C)c3)nc2n1-c1cccc(N(C)C2CCN(C)CC2)n1` [Compound 175, 1-{6-[methyl(1-methylpiperidin-4-yl)amino]pyridin-2-yl}-6-{[1-(2-methylpropyl)-1H-pyrazol-4-yl]amino}-2-(prop-2-en-1-yl)-1H,2H,3H-pyrazolo[3,4-d]pyrimidin-3-one], the IC50 is less than 10 nM in assay [1] and greater than 500 nM in assay [2] (setting [7]). Besides, the EC50 in assay [3] (setting [8]) lay in the range of 500 to 1000 nM.

`CCn1c(=O)c2cnc(Nc3cnn(C)c3)nc2n1-c1cccc(OC2CCN(C)CC2)n1` [Compound 132, 2-ethyl-1-[6-(1-methyl-4-piperidyloxy)-2-pyridyl]-6-(1-methyl-4-pyrazolylamino)-1,2-dihydro-3H-1,2,5,7-tetraazainden-3-one]: the IC50 is less than 10 nM in assay [1] (setting [4]) and 100 to 500 nM in assay [2] (setting [5]). For the same molecule, the EC50 in assay [3] (setting [6]) is 100 to 500 nM.

Values taken from patent publication US20260364080A1, “PYRAZOLO-PYRIMIDINONE COMPOUNDS FOR USE IN METHODS OF INHIBITING WEE1 A KINASE” (Acrivon Therapeutics, Inc., priority 2023, published 2026).
